Data published in patent publication US20180078609A1, “METHODS AND COMPOSITIONS FOR TREATING ALZHEIMER'S DISEASE AND OTHER MEMORY-ASSOCIATED DISORDERS AND CONDITIONS” (Massachusetts Institute of Technology, priority 2016, published 2018).

Assays:
DG engram cells [1] = test: Dendritic spine density analysis of DG engram cells after in vivo optical LTP; parameters: species or system mouse; details: early AD mice treated with anisomycin after LTP induction
Description: Engram cells were labelled using c-Fos-tTA-driven synthesis of ChR2-eYFP or eYFP alone. The eYFP signal was amplified using immunohistochemistry procedures, after which fluorescence z-stacks were taken by confocal microscopy (Zeiss LSM700) using a×40 objective. Maximum intensity projections were generated using ZEN Black software (Zeiss). Four mice per experimental group were analyzed for dendritic spines. For each mouse, 30-40 dendritic fragments of 10-μm length were quantified (n=120-160 fragments per group). To measure spine density of DG engram cells with a focus on entorhinal cortical inputs, distal dendritic fragments in the middle-to-outer molecular layer (ML) were selected. For CA3 and CA1 engram cells, apical and basal dendritic fragments were selected. To compute spine density, the number of spines counted on each fragment was normalized by the cylindrical approximation of the surface of the specific fragment. Experiments were conducted blind to experimental group. Researcher 1 imaged dendritic fragments and randomized images, while researcher 2 performed manual spine counting.
(§1) One day after CFC training and engram labelling (DG plus PP terminals) in control and early AD groups, mice were placed in an open field arena (52×26 cm) after patch cords were fitted to the fiber implants. […]

early AD mice = test: Contextual fear conditioning memory recall (freezing) after in vivo optical LTP; parameters: species or system mouse
From the text: Two distinct contexts were employed [Ryan, T. J., et al. (2015) Science 348, 1007-1013]. Context A was 29×25×22 cm chambers with grid floors, opaque triangular ceilings, red lighting, and scented with 1% acetic acid. Four mice were run simultaneously in four identical context A chambers. Context B consisted of four 30×25×33 cm chambers with perspex floors, transparent square ceilings, bright white lighting, and scented with 0.25% benzaldehyde. All mice were conditioned in context A (two 0.60 mA shocks of 2 s duration in 5 min), and tested (3 min) in contexts A and B 1 day later. […] Floors of chambers were cleaned with quatricide before and between runs. Mice were transported to and from the experimental room in their home cages using a wheeled cart. The cart and cages remained in an anteroom to the experimental rooms during all behavioral experiments. For engram labeling, mice were kept on regular food without DOX for 24 h before training. When training was complete, mice were switched back to food containing 40 mg kg^−1 DOX.
as §1

DG = test: Kainic acid seizure-induced ChR2-eYFP labelling; type: in vivo, mouse; details: 1 day off DOX; 15 mg kg−1 i.p. kainic acid
Description: For seizure experiments [Liu, X., et al. (2012) Nature 484, 381-385], mice were taken off DOX for 1 day and injected intraperitoneally with 15 mg kg^−1 kainic acid (KA). Mice were returned to DOX food 6 h after KA treatment and perfused the next day for immunohistochemistry procedures.
To characterize the expression pattern of ChR2-eYFP, DTR-eYFP, eYFP alone and oChIEF-tdTomato in control and AD mice, the number of eYFP^+/tdTomato^+ neurons were counted from 4-5 coronal slices per mouse (n=3-5 mice per group). Coronal slices centered on coordinates covered by optic fiber implants were taken for DG quantification and sagittal slices centered on injection coordinates were taken for MEC and LEC. Fluorescence images were acquired using a Zeiss Axiolmager.Z1/ApoTome microscope (×20). […] The number of eYFP^+/tdTomato^+ cells per section was calculated by applying a threshold above background fluorescence. Data were analyzed using Microsoft Excel with the Statplus plug-in. A similar approach was applied for quantifying amyloid-3 plaques, c-Fos^+ neurons and adult newborn (DCX^+) neurons. Total engram cell reactivation was calculated as ((c-Fos^+ eYFP^+)/(total DAPI^+))×100. Chance overlap was calculated as ((c-Fos^+/total DAPI^+)×(eYFP^+/total DAPI^+))×100. Percentage of adult newborn neurons expressing neuronal markers was calculated as ((NeuN^+ DCX^+)/(total DCX^+))×100. […]

DG mossy cells = test: Calretinin (CR+) staining of mossy cell axons after engram cell ablation; type: in vivo, mouse; details: after DT administration
Description: Mice were dispatched using 750-1,000 mg kg^−1 avertin and perfused transcardially with PBS, followed by 4% paraformaldehyde (PFA). Brains were extracted and incubated in 4% PFA at room temperature overnight. Brains were transferred to PBS and 50 μm coronal slices were prepared using a vibratome. For immunostaining [Ryan, T. J., et al. (2015) Science 348, 1007-1013], each slice was placed in PBS+0.2% Triton X-100 (PBS-T), with 5% normal goat serum for 1 h and then incubated with primary antibody at 4° C. for 24 h. Slices then underwent three wash steps for 10 min each in PBS-T, followed by 1 h incubation with secondary antibody. After three more wash steps of 10 min each in PBS-T, slices were mounted on microscope slides. All analyses were performed blind to the experimental conditions. Antibodies used for staining were as follows: to stain for ChR2-eYFP, DTR-eYFP or eYFP alone, slices were incubated with primary chicken anti-GFP (1:1,000, Life Technologies) and visualized using anti-chicken Alexa-488 (1:200). For plaques, slices were stained using primary mouse anti-β-amyloid (1:1,000; Sigma-Aldrich) and secondary anti-mouse Alexa-488 (1:500). c-Fos was stained with rabbit anti-c-Fos (1:500, Calbiochem) and anti-rabbit Alexa-568 (1:300). Adult newborn neurons were stained with guinea pig anti-DCX (1:1,000; Millipore) and anti-guinea-pig Alexa-555 (1:500). […]

DG engram cells [2] = test: DTR-mediated ablation of engram cells, DTR-eYFP cell counts; type: in vivo, mouse; details: DTR-expressing DG engram cells after DT administration
Description: Mice were dispatched using 750-1,000 mg kg^−1 avertin and perfused transcardially with PBS, followed by 4% paraformaldehyde (PFA). Brains were extracted and incubated in 4% PFA at room temperature overnight. Brains were transferred to PBS and 50 μm coronal slices were prepared using a vibratome. For immunostaining [Ryan, T. J., et al. (2015) Science 348, 1007-1013], each slice was placed in PBS+0.2% Triton X-100 (PBS-T), with 5% normal goat serum for 1 h and then incubated with primary antibody at 4° C. for 24 h. Slices then underwent three wash steps for 10 min each in PBS-T, followed by 1 h incubation with secondary antibody. […]
To characterize the expression pattern of ChR2-eYFP, DTR-eYFP, eYFP alone and oChIEF-tdTomato in control and AD mice, the number of eYFP^+/tdTomato^+ neurons were counted from 4-5 coronal slices per mouse (n=3-5 mice per group). Coronal slices centered on coordinates covered by optic fiber implants were taken for DG quantification and sagittal slices centered on injection coordinates were taken for MEC and LEC. Fluorescence images were acquired using a Zeiss Axiolmager.Z1/ApoTome microscope (×20). […] The number of eYFP^+/tdTomato^+ cells per section was calculated by applying a threshold above background fluorescence. Data were analyzed using Microsoft Excel with the Statplus plug-in. […]

Compound: COc1ccc(C[C@H]2NC[C@H](O)[C@H]2OC(C)=O)cc1 [anisomycin]
- Average dendritic spine density vs saline-treated AD mice (DG engram cells [1]): decreased
- Memory recall freezing vs saline-treated AD mice (early AD mice; AD+100 Hz+Aniso, 2 days after LTP induction followed by drug administration, 75 mg kg−1 i.p. twice): less freezing

Compound: C=C(C)[C@H]1CN[C@H](C(=O)O)[C@H]1CC(=O)O [kainic acid]
- ChR2-eYFP labelling after seizures (DG): efficient labelling throughout the DG

Compound: diphtheria toxin
- Effect on nearby DG mossy cells (DG mossy cells): intact
- Ablation of DG engram cells (DG engram cells [2]): efficiently ablated DG engram cells
- Memory recall freezing vs saline-treated mice (early AD mice; AD rescue+DTR+DT, after optical LTP spine restoration): less freezing
